Results: PubChem BioAssay (NCI)
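Five compound concentrations were applied to cells in 96-well plates for 48 hours; endpoints were derived by simple linear interpolation of the resulting dose-response curve. TGI is the concentration that stops growth completely.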

How the values were obtained:
Experiment in all cases: inhibition of tumour cell growth, NCI panel, 48 h
786-0 renal = test system: 786-0 renal
A498 renal = test system: A498 renal
A549 NSCLC = test system: A549 NSCLC
ACHN renal = test system: ACHN renal
CAKI-1 renal = test system: CAKI-1 renal
CCRF-CEM leukemia = test system: CCRF-CEM leukemia
COLO 205 colon = test system: COLO 205 colon
DLD-1 colon = test system: DLD-1 colon
DMS 114 small cell lung = test system: DMS 114 small cell lung
DMS 273 small cell lung = test system: DMS 273 small cell lung
EKVX NSCLC = test system: EKVX NSCLC
HCC-2998 colon = test system: HCC-2998 colon
HCT-116 colon = test system: HCT-116 colon
HCT-15 colon = test system: HCT-15 colon
HL-60(TB) leukemia = test system: HL-60(TB) leukemia
HOP-18 NSCLC = test system: HOP-18 NSCLC
HOP-62 NSCLC = test system: HOP-62 NSCLC
HOP-92 NSCLC = test system: HOP-92 NSCLC
HT29 colon = test system: HT29 colon
IGROV1 ovarian = test system: IGROV1 ovarian
K-562 leukemia = test system: K-562 leukemia
KM12 colon = test system: KM12 colon
KM20L2 colon = test system: KM20L2 colon
LOX IMVI melanoma = test system: LOX IMVI melanoma
LXFL 529 NSCLC = test system: LXFL 529 NSCLC
M14 melanoma = test system: M14 melanoma
M19-MEL melanoma = test system: M19-MEL melanoma
MALME-3M melanoma = test system: MALME-3M melanoma
MOLT-4 leukemia = test system: MOLT-4 leukemia
NCI-H226 lung = test system: NCI-H226 lung
NCI-H23 lung = test system: NCI-H23 lung
NCI-H460 lung = test system: NCI-H460 lung
OVCAR-3 ovarian = test system: OVCAR-3 ovarian
OVCAR-4 ovarian = test system: OVCAR-4 ovarian
OVCAR-5 ovarian = test system: OVCAR-5 ovarian
OVCAR-8 ovarian = test system: OVCAR-8 ovarian
RXF 393 renal = test system: RXF 393 renal
RXF-631 renal = test system: RXF-631 renal
SF-268 CNS = test system: SF-268 CNS
SF-295 CNS = test system: SF-295 CNS
SF-539 CNS = test system: SF-539 CNS
SK-MEL-28 melanoma = test system: SK-MEL-28 melanoma
SK-MEL-5 melanoma = test system: SK-MEL-5 melanoma
SN12C renal = test system: SN12C renal
SNB-19 CNS = test system: SNB-19 CNS
SNB-75 CNS = test system: SNB-75 CNS
SNB-78 CNS = test system: SNB-78 CNS
SR leukemia = test system: SR leukemia
SW-620 colon = test system: SW-620 colon
TK-10 renal = test system: TK-10 renal
U251 CNS = test system: U251 CNS
UACC-257 melanoma = test system: UACC-257 melanoma
UACC-62 melanoma = test system: UACC-62 melanoma
UO-31 renal = test system: UO-31 renal
XF 498 CNS = test system: XF 498 CNS
NCI-H522 lung = test system: NCI-H522 lung
RPMI-8226 leukemia = test system: RPMI-8226 leukemia
SK-MEL-2 melanoma = test system: SK-MEL-2 melanoma
SK-OV-3 ovarian = test system: SK-OV-3 ovarian

Compound: CC1=C(C(=O)NCc2ccccc2)C(c2ccccc2[N+](=O)[O-])C(C(=O)NCc2ccccc2)=C(C)N1
- TGI (786-0 renal): 25.4 µM
- TGI (A498 renal): 32.4 µM
- TGI (A549 NSCLC): 68.1 µM
- TGI (ACHN renal): 27.4 µM
- TGI (CAKI-1 renal): 50 µM
- TGI (CCRF-CEM leukemia): 44.7 µM
- TGI (COLO 205 colon): 33.8 µM
- TGI (DLD-1 colon): 20.3 µM
- TGI (DMS 114 small cell lung): 29.8 µM
- TGI (DMS 273 small cell lung): 25.4 µM
- TGI (EKVX NSCLC): 30.1 µM
- TGI (HCC-2998 colon): 31.2 µM
- TGI (HCT-116 colon): 19.7 µM
- TGI (HCT-15 colon): 22.4 µM
- TGI (HL-60(TB) leukemia): 13.2 µM
- TGI (HOP-18 NSCLC): 35.1 µM
- TGI (HOP-62 NSCLC): 35.1 µM
- TGI (HOP-92 NSCLC): 36.6 µM
- TGI (HT29 colon): 28 µM
- TGI (IGROV1 ovarian): 40.9 µM
- TGI (K-562 leukemia): 24.8 µM
- TGI (KM12 colon): 23.1 µM
- TGI (KM20L2 colon): 30.3 µM
- TGI (LOX IMVI melanoma): 21.3 µM
- TGI (LXFL 529 NSCLC): 23.1 µM
- TGI (M14 melanoma): 23.9 µM
- TGI (M19-MEL melanoma): 23.9 µM
- TGI (MALME-3M melanoma): 27 µM
- TGI (MOLT-4 leukemia): 50.5 µM
- TGI (NCI-H226 lung): 30.4 µM
- TGI (NCI-H23 lung): 25.4 µM
- TGI (NCI-H460 lung): 31.4 µM
- TGI (OVCAR-3 ovarian): 19.2 µM
- TGI (OVCAR-4 ovarian): 22.9 µM
- TGI (OVCAR-5 ovarian): 36.6 µM
- TGI (OVCAR-8 ovarian): 43.3 µM
- TGI (RXF 393 renal): 23.4 µM
- TGI (RXF-631 renal): 29.2 µM
- TGI (SF-268 CNS): 22.9 µM
- TGI (SF-295 CNS): 25.4 µM
- TGI (SF-539 CNS): 25.8 µM
- TGI (SK-MEL-28 melanoma): 26 µM
- TGI (SK-MEL-5 melanoma): 25.9 µM
- TGI (SN12C renal): 27.4 µM
- TGI (SNB-19 CNS): 27.5 µM
- TGI (SNB-75 CNS): 26.6 µM
- TGI (SNB-78 CNS): 42.6 µM
- TGI (SR leukemia): 35.8 µM
- TGI (SW-620 colon): 28.1 µM
- TGI (TK-10 renal): 31.4 µM
- TGI (U251 CNS): 22.8 µM
- TGI (UACC-257 melanoma): 29.4 µM
- TGI (UACC-62 melanoma): 22.9 µM
- TGI (UO-31 renal): 27 µM
- TGI (XF 498 CNS): 31.9 µM

Compound: CN(C)CC1(C)CC/C(=C\c2ccccc2)C1=O (centres undefined)
- TGI (786-0 renal): > 100 µM
- TGI (A498 renal): > 100 µM
- TGI (A549 NSCLC): > 100 µM
- TGI (ACHN renal): > 100 µM
- TGI (CAKI-1 renal): > 100 µM
- TGI (CCRF-CEM leukemia): > 100 µM
- TGI (COLO 205 colon): > 100 µM
- TGI (DLD-1 colon): > 100 µM
- TGI (DMS 114 small cell lung): > 100 µM
- TGI (DMS 273 small cell lung): > 100 µM
- TGI (HCC-2998 colon): > 100 µM
- TGI (HCT-116 colon): > 100 µM
- TGI (HCT-15 colon): > 100 µM
- TGI (HOP-18 NSCLC): > 100 µM
- TGI (HOP-62 NSCLC): > 100 µM
- TGI (HOP-92 NSCLC): > 100 µM
- TGI (HT29 colon): > 100 µM
- TGI (IGROV1 ovarian): > 100 µM
- TGI (K-562 leukemia): > 100 µM
- TGI (KM12 colon): > 100 µM
- TGI (KM20L2 colon): > 100 µM
- TGI (LOX IMVI melanoma): > 100 µM
- TGI (M14 melanoma): > 100 µM
- TGI (M19-MEL melanoma): > 100 µM
- TGI (MALME-3M melanoma): > 100 µM
- TGI (MOLT-4 leukemia): > 100 µM
- TGI (NCI-H226 lung): > 100 µM
- TGI (NCI-H23 lung): > 100 µM
- TGI (NCI-H460 lung): > 100 µM
- TGI (NCI-H522 lung): > 100 µM
- TGI (OVCAR-3 ovarian): > 100 µM
- TGI (OVCAR-4 ovarian): > 100 µM
- TGI (OVCAR-5 ovarian): > 100 µM
- TGI (OVCAR-8 ovarian): > 100 µM
- TGI (RPMI-8226 leukemia): 63.2 µM
- TGI (RXF 393 renal): > 100 µM
- TGI (RXF-631 renal): > 100 µM
- TGI (SF-268 CNS): > 100 µM
- TGI (SF-295 CNS): > 100 µM
- TGI (SF-539 CNS): > 100 µM
- TGI (SK-MEL-2 melanoma): > 100 µM
- TGI (SK-MEL-28 melanoma): > 100 µM
- TGI (SK-MEL-5 melanoma): > 100 µM
- TGI (SN12C renal): > 100 µM
- TGI (SNB-19 CNS): > 100 µM
- TGI (SNB-75 CNS): > 100 µM
- TGI (SNB-78 CNS): > 100 µM
- TGI (SW-620 colon): > 100 µM
- TGI (TK-10 renal): > 100 µM
- TGI (U251 CNS): > 100 µM
- TGI (UACC-257 melanoma): > 100 µM
- TGI (UACC-62 melanoma): > 100 µM
- TGI (UO-31 renal): > 100 µM
- TGI (XF 498 CNS): > 100 µM

Compound: Cc1ccccc1C(C#N)C(=O)C(=O)Nc1cccc(Cl)c1 (centres undefined)
- TGI (786-0 renal): > 100 µM
- TGI (A498 renal): > 100 µM
- TGI (A549 NSCLC): > 100 µM
- TGI (ACHN renal): > 100 µM
- TGI (CAKI-1 renal): > 100 µM
- TGI (CCRF-CEM leukemia): > 100 µM
- TGI (COLO 205 colon): > 100 µM
- TGI (DLD-1 colon): > 100 µM
- TGI (DMS 114 small cell lung): > 100 µM
- TGI (DMS 273 small cell lung): > 100 µM
- TGI (EKVX NSCLC): > 100 µM
- TGI (HCC-2998 colon): > 100 µM
- TGI (HCT-116 colon): > 100 µM
- TGI (HCT-15 colon): > 100 µM
- TGI (HL-60(TB) leukemia): > 100 µM
- TGI (HOP-62 NSCLC): > 100 µM
- TGI (HOP-92 NSCLC): > 100 µM
- TGI (HT29 colon): > 100 µM
- TGI (IGROV1 ovarian): > 100 µM
- TGI (K-562 leukemia): > 100 µM
- TGI (KM12 colon): > 100 µM
- TGI (KM20L2 colon): > 100 µM
- TGI (LOX IMVI melanoma): 34.1 µM
- TGI (M14 melanoma): > 100 µM
- TGI (M19-MEL melanoma): 95.5 µM
- TGI (MALME-3M melanoma): > 100 µM
- TGI (MOLT-4 leukemia): > 100 µM
- TGI (NCI-H226 lung): > 100 µM
- TGI (NCI-H23 lung): > 100 µM
- TGI (NCI-H460 lung): > 100 µM
- TGI (NCI-H522 lung): > 100 µM
- TGI (OVCAR-3 ovarian): > 100 µM
- TGI (OVCAR-5 ovarian): > 100 µM
- TGI (OVCAR-8 ovarian): > 100 µM
- TGI (RPMI-8226 leukemia): 62.1 µM
- TGI (RXF 393 renal): > 100 µM
- TGI (RXF-631 renal): > 100 µM
- TGI (SF-268 CNS): > 100 µM
- TGI (SF-295 CNS): > 100 µM
- TGI (SF-539 CNS): > 100 µM
- TGI (SK-MEL-2 melanoma): > 100 µM
- TGI (SK-MEL-28 melanoma): > 100 µM
- TGI (SK-MEL-5 melanoma): > 100 µM
- TGI (SK-OV-3 ovarian): > 100 µM
- TGI (SN12C renal): > 100 µM
- TGI (SNB-19 CNS): > 100 µM
- TGI (SNB-75 CNS): > 100 µM
- TGI (SNB-78 CNS): > 100 µM
- TGI (SW-620 colon): 31.6 µM
- TGI (TK-10 renal): > 100 µM
- TGI (U251 CNS): > 100 µM
- TGI (UACC-257 melanoma): > 100 µM
- TGI (UACC-62 melanoma): > 100 µM
- TGI (UO-31 renal): > 100 µM
- TGI (XF 498 CNS): > 100 µM
